# In patent US10028956B2, “Methods of treating various cancers using an AXL/cMET inhibitor in combination with other agents” (Ignyta, Inc., priority 2013, dated 2018):
# Experiments:
# [1] = tested on: NIH3T3/AXL tumor xenografts; assay: Anti-tumor efficacy in NIH3T3/AXL tumor xenografts; type: in vivo, mice; details: 0.3, 1 or 10 mg/kg PO qd, all doses tested
# Method: The engineered NIH3T3/AXL cell line was generated as follows. The human AXL cDNA was subcloned into the pQCXIP vector and the sequences were confirmed by sequencing at Children's Hospital of Philadelphia. PT67 cells (5×10^5) in 4 mL DMEM+10% FBS were seeded in each well of 6-well plates (Cat^#353046, Becton Dickinson, Franklin Lakes, N.J.) and cultured at 37° C. in a humidified incubator with 5% CO2 overnight. The cells were transfected with 2 μg of pQCXIP-AXL with Lipofectamine™ 2000 (Cat#52887, Invitrogen, Carlsbad, Calif.) transfection reagent per the manufacturer's protocol. In brief, the DNA in 500 μL culture media was mixed with 500 μL media containing 20 μL Lipofectamine™ 2000 transfection reagent, and the mixture was incubated at room temperature for 20 minutes. […]
# NIH3T3/AXL cells were collected and resuspended in DMEM medium at density of 5×10^7/mL. […] The mice were monitored and the tumor sizes were measured. […] The length (L) and width (W) of each tumor were measured with a vernier caliper and the mouse body weight was determined every two to three days. Tumor volumes were calculated with the formula of 0.5236*L*W*(L+W)/2. […] Plasma and tumor samples were obtained at 2 hours post final dose at each dose level, and the compound levels in plasma and tumor lysates were measured by LC-MS/MS.
# [2] = molecular target: T1, AXL (Homo sapiens, UniProt P30530); assay: Dissociation from AXL, LanthaScreen Eu-kinase binding assay
# T1 sequence (P30530 26-894): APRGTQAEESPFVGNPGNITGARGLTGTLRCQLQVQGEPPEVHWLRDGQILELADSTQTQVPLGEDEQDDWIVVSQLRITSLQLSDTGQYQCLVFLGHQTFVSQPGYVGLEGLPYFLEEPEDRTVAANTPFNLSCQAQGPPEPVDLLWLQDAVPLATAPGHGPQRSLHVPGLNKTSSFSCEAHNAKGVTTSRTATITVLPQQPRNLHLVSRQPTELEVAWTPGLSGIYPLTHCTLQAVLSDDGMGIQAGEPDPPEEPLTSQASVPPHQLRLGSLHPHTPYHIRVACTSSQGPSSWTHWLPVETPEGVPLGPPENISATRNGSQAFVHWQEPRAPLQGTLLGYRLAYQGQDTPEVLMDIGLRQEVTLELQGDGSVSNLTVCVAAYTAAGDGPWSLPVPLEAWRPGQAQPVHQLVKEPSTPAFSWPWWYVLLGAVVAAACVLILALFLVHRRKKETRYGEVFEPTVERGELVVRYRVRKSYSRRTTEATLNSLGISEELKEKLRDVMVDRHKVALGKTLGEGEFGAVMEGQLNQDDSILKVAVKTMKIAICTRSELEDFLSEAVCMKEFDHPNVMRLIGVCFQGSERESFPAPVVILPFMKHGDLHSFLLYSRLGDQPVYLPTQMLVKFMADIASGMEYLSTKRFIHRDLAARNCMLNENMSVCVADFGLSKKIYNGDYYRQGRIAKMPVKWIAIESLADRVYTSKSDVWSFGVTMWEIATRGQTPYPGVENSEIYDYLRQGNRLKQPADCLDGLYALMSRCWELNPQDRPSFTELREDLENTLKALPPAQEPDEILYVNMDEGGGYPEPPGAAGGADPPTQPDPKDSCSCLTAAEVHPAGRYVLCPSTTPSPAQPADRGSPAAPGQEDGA
# Method: Assay buffer was prepared as for association, and used for all dilutions. A 5-μL aliquot of 80 nM LanthaScreen Eu-anti-GST antibody:20 nM GST-tagged enzyme mix was added to the Greiner low volume white 384-well plate, with antibody only added to control wells. Compound (100 nL) in DMSO was added by pintool at 2000-fold over the final assay concentration. DMSO was added to no inhibitor control wells. After a one-hour incubation at ambient temperature to allow formation of the enzyme-inhibitor complex, 2 μL of the reaction mix was transferred to a 384 Optiplate (PerkinElmer) and 78 μL of kinase tracer 236 was added. The final tracer concentration was 100 nM for AXL and 200 nM for c-Met. Readings were immediately initiated and total of 60 time points were taken at 2-min intervals, at 25° C. or 37° C. The background subtracted ratio was normalized to the no inhibitor control to calculate the % tracer bound, which was plotted with respect to time. The data was fitted to the one phase association model in GraphPad Prism (La Jolla Calif.).
# [3] = Tolerability / body weight in the xenograft studies; type: in vivo; details: in all of the above studies
structure (smiles),measurement,setting,value
"COc1cc2nccc(Oc3ccc(NC(=O)c4cn(C(C)C)c(=O)n(-c5ccc(F)cc5)c4=O)cc3F)c2cc1OC [CEP-40783, 3-(4-Fluorophenyl)-1-isopropyl-2,4-dioxo-1,2,3,4-tetrahydropyrimidine-5-carboxylic acid [4-(6,7-dimethoxyquinolin-4-yloxy)-3-fluorophenyl]-amide]",anti-tumor efficacy (tumor volume),[1],complete tumor regressions
same,off-rate from AXL,[2]; 25° C.,very slow
same,dissociation rate from AXL at higher temperature,[2]; 37° C. versus 25° C.,slightly enhanced
same,"tolerability, body weight",[3],well tolerated with no compound-related body weight loss
